In PMC8201645 (Journal of medicinal chemistry, 2020):
Read-outs that look alike come from different tables or passages of the source.

How the values were obtained:
PPARγ = target: T1, PPARγ (Homo sapiens, UniProt P37231); conditions: TR-FRET-based assay
T1 sequence (P37231 235-505 limits assumed): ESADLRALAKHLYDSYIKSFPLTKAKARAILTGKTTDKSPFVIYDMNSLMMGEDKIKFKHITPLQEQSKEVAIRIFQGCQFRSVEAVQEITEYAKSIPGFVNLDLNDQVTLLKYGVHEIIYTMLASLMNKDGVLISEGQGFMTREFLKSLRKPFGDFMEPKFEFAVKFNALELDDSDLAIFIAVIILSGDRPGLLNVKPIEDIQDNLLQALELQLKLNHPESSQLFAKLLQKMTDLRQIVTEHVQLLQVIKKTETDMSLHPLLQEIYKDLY

PPARδ = target: T2, PPARδ (Homo sapiens, UniProt Q03181); conditions: TR-FRET-based assay
T2 sequence (Q03181 171-441 limits assumed): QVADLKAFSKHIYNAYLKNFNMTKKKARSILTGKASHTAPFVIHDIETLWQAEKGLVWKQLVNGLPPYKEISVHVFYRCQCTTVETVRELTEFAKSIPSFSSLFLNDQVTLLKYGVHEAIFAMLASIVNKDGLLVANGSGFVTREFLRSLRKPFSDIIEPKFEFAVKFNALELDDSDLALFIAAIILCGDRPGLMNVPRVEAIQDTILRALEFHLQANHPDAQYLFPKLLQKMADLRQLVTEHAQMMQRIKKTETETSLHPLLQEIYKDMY

hBM-MSCs = conditions: 10 μM cotreated with IDX medium for 5 d
PPARδ-LBD [1] = target: T3, PPARδ-LBD (Homo sapiens, UniProt Q03181)
T3 sequence (Q03181 211-439 limits assumed): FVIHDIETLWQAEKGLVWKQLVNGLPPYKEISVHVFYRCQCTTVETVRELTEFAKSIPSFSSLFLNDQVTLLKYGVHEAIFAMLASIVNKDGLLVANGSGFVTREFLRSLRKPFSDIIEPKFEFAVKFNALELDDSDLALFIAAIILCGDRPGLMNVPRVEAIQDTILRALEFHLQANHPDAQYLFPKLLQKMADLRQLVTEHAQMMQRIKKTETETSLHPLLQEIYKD

PPARδ-LBD [2] = target: T3, PPARδ-LBD; remark: listed apart in the source
human A3AR [3] = target: T4, human A3AR (Homo sapiens, UniProt P0DMS8); conditions: at 10 μM; previously reported; cited from earlier work
T4 sequence (P0DMS8 1-318): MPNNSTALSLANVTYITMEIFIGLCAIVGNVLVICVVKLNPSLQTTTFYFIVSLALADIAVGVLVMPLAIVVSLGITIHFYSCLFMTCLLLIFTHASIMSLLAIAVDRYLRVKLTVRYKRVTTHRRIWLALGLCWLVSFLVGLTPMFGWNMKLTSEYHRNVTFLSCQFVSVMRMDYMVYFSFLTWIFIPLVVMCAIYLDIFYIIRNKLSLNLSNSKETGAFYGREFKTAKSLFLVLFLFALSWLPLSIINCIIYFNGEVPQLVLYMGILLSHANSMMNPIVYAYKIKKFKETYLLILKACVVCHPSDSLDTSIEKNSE

PPARγ-LBD = target: T5, PPARγ-LBD (Homo sapiens, UniProt P37231); conditions: fluorescein-TRAP220/DRIP peptide
T5 sequence (P37231 238-503 limits assumed): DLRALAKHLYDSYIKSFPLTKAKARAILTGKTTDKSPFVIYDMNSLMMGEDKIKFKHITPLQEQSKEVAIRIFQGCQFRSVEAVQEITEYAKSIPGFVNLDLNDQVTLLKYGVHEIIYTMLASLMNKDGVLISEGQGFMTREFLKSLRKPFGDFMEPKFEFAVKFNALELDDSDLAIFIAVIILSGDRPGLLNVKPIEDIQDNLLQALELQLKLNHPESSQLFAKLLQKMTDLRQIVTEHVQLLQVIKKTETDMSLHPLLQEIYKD

human A3AR [4] = target: T4, human A3AR; conditions: at 10 μM

SMILES: O[C@@H]1[C@H](O)CS[C@H]1Cn1cnc2c(NCc3cccc(F)c3)nc(Cl)nc21 [4a, (2S,3R,4S)-2-((2-Chloro-6-((3-fluorobenzyl)amino)-9H-purin-9-yl)methyl)tetrahydrothiophene-3,4-diol]
- PPARγ-binding activity (in words) (PPARγ): significant dual receptor-binding activity
- PPARδ-binding activity (in words) (PPARδ): significant dual receptor-binding activity
- adiponectin production compared to the IDX vehicle control (hBM-MSCs): significantly promoted adiponectin production
- interaction between PPARδ-LBD and corepressor peptide SMRT-ID2 (PPARδ-LBD [1]): significantly increased the interaction between PPARδ-LBD and the corepressor peptide
- recruitment of coactivator peptide C33 to PPARδ-LBD (PPARδ-LBD [2]): no effect on the recruitment of coactivator peptide
- hA3AR % replacement (human A3AR [3]): 17% at 10 μM

SMILES: O[C@@H]1[C@H](O)CS[C@H]1Cn1cnc2c(NCc3cccc(Cl)c3)nc(Cl)nc21 [4b, (2S,3R,4S)-2-((2-Chloro-6-((3-chlorobenzyl)amino)-9H-purin-9-yl)methyl)tetrahydrothiophene-3,4-diol]
- hA3AR % replacement (human A3AR [3]): 13% at 10 μM

SMILES: O[C@@H]1[C@H](O)CS[C@H]1Cn1cnc2c(NCc3cccc(Br)c3)nc(Cl)nc21 [4c, (2S,3R,4S)-2-((6-((3-Bromobenzyl)amino)-2-chloro-9H-purin-9-yl)methyl)tetrahydrothiophene-3,4-diol]
- PPARγ-binding activity (in words) (PPARγ): significant dual receptor-binding activity
- PPARδ-binding activity (in words) (PPARδ): significant dual receptor-binding activity
- adiponectin production compared to the IDX vehicle control (hBM-MSCs): significantly promoted adiponectin production
- interaction between PPARδ-LBD and corepressor peptide SMRT-ID2 (PPARδ-LBD [1]): significantly increased the interaction between PPARδ-LBD and the corepressor peptide
- recruitment of coactivator peptide C33 to PPARδ-LBD (PPARδ-LBD [2]): no effect on the recruitment of coactivator peptide
- hA3AR % replacement (human A3AR [3]): 21% at 10 μM

SMILES: O[C@@H]1[C@H](O)CS[C@H]1Cn1cnc2c(NCc3cccc(I)c3)nc(Cl)nc21 [4d, (2S,3R,4S)-2-((2-Chloro-6-((3-iodobenzyl)amino)-9H-purin-9-yl)-methyl)tetrahydrothiophene-3,4-diol]
- PPARδ-binding activity (in words) (PPARδ): significant dual receptor-binding activity
- interaction between PPARδ-LBD and corepressor peptide SMRT-ID2 (PPARδ-LBD [1]): significantly increased the interaction between PPARδ-LBD and the corepressor peptide
- PPARδ corepressor recruitment in presence of PPARδ agonist 27 (PPARδ-LBD [1]; 27 (1 μM), 4d (10 μM), 28 (1 μM)): significantly inhibited by 27
- recruitment of coactivator peptide C33 to PPARδ-LBD (PPARδ-LBD [2]): no effect on the recruitment of coactivator peptide
- hA3AR % replacement (human A3AR [3]): 10% at 10 μM

SMILES: O[C@@H]1[C@H](O)CS[C@H]1Cn1cnc2c(NCc3cccc(F)c3)ncnc21 [4e, (2S,3R,4S)-2-((6-((3-Fluorobenzyl)amino)-9H-purin-9-yl)methyl)-tetrahydrothiophene-3,4-diol]
- hA3AR % replacement (human A3AR [3]): 9% at 10 μM

SMILES: O[C@@H]1[C@H](O)CS[C@H]1Cn1cnc2c(NCc3cccc(Cl)c3)ncnc21 [4f, (2S,3R,4S)-2-((6-((3-Chlorobenzyl)amino)-9H-purin-9-yl)methyl)-tetrahydrothiophene-3,4-diol]
- hA3AR % replacement (human A3AR [3]): 9% at 10 μM

SMILES: O[C@@H]1[C@H](O)CS[C@H]1Cn1cnc2c(NCc3cccc(Br)c3)ncnc21 [4g, (2S,3R,4S)-2-((6-((3-Bromobenzyl)amino)-9H-purin-9-yl)methyl)-tetrahydrothiophene-3,4-diol]
- hA3AR % replacement (human A3AR [3]): 6% at 10 μM

SMILES: O[C@@H]1[C@H](O)CS[C@H]1Cn1cnc2c(NCc3cccc(I)c3)ncnc21 [4h, (2S,3R,4S)-2-((6-((3-Iodobenzyl)amino)-9H-purin-9-yl)methyl)-tetrahydrothiophene-3,4-diol]
- hA3AR % replacement (human A3AR [3]): 14% at 10 μM

SMILES: CC#Cc1nc(NCc2cccc(F)c2)c2ncn(C[C@@H]3SC[C@@H](O)[C@H]3O)c2n1 [4i, (2S,3R,4S)-2-((6-((3-Fluorobenzyl)amino)-2-(prop-1-yn-1-yl)-9H-purin-9-yl)methyl)tetrahydrothiophene-3,4-diol]
- adiponectin production compared to the IDX vehicle control (hBM-MSCs): significantly promoted adiponectin production

SMILES: CC#Cc1nc(NCc2cccc(Cl)c2)c2ncn(C[C@@H]3SC[C@@H](O)[C@H]3O)c2n1 [4j, (2S,3R,4S)-2-((6-((3-Chlorobenzyl)amino)-2-(prop-1-yn-1-yl)-9H-purin-9-yl)methyl)tetrahydrothiophene-3,4-diol]
- coactivator peptide recruitment to PPARγ-LBD (PPARγ-LBD): no statistical significance

SMILES: CC#Cc1nc(NCc2cccc(Br)c2)c2ncn(C[C@@H]3SC[C@@H](O)[C@H]3O)c2n1 [4k, (2S,3R,4S)-2-((6-((3-Bromobenzyl)amino)-2-(prop-1-yn-1-yl)-9H-purin-9-yl)methyl)tetrahydrothiophene-3,4-diol]
- adiponectin production compared to the IDX vehicle control (hBM-MSCs): significantly promoted adiponectin production

SMILES: CC#Cc1nc(NCc2cccc(I)c2)c2ncn(C[C@@H]3SC[C@@H](O)[C@H]3O)c2n1 [4l, (2S,3R,4S)-2-((6-((3-Iodobenzyl)amino)-2-(prop-1-yn-1-yl)-9H-purin-9-yl)methyl)tetrahydrothiophene-3,4-diol]
- adiponectin production compared to the IDX vehicle control (hBM-MSCs): significantly promoted adiponectin production

SMILES: O[C@@H]1[C@H](O)CO[C@H]1Cn1cnc2c(NCc3cccc(Cl)c3)nc(Cl)nc21 [4n, (2S,3R,4R)-2-((2-Chloro-6-((3-chlorobenzyl)amino)-9H-purin-9-yl)methyl)tetrahydrofuran-3,4-diol]
- adiponectin production compared to the IDX vehicle control (hBM-MSCs): significantly promoted adiponectin production
- interaction between PPARδ-LBD and corepressor peptide SMRT-ID2 (PPARδ-LBD [1]): significantly increased the interaction between PPARδ-LBD and the corepressor peptide
- recruitment of coactivator peptide C33 to PPARδ-LBD (PPARδ-LBD [2]): no effect on the recruitment of coactivator peptide

SMILES: O[C@@H]1[C@H](O)CO[C@H]1Cn1cnc2c(NCc3cccc(Br)c3)nc(Cl)nc21 [4o, (2S,3R,4R)-2-((6-((3-Bromobenzyl)amino)-2-chloro-9H-purin-9-yl)methyl)tetrahydrofuran-3,4-diol]
- adiponectin production compared to the IDX vehicle control (hBM-MSCs): significantly promoted adiponectin production
- interaction between PPARδ-LBD and corepressor peptide SMRT-ID2 (PPARδ-LBD [1]): significantly increased the interaction between PPARδ-LBD and the corepressor peptide
- recruitment of coactivator peptide C33 to PPARδ-LBD (PPARδ-LBD [2]): no effect on the recruitment of coactivator peptide

SMILES: O[C@@H]1[C@H](O)CO[C@H]1Cn1cnc2c(NCc3cccc(I)c3)nc(Cl)nc21 [4p, (2S,3R,4R)-2-((2-Chloro-6-((3-iodobenzyl)amino)-9H-purin-9-yl)-methyl)tetrahydrofuran-3,4-diol]
- hA3AR % replacement (human A3AR [4]): 3% at 10 μM
